The record followed here is patent publication US20100105673A1, “SUBSTITUTED AMINOFURANONES AND THEIR USE” (priority 2006, published 2010).

Structures are written as SMILES.

For this experiment, the target named is T1, HIV-1 protease wild type protein (Human immunodeficiency virus type 1 group M subtype B, UniProt P04585).
T1 construct: 20 μl of 0.2−1 nM HIV-1 protease wild type or mutant protein; purchased AscoProt Biotech, Prague, Czech Republic
In words: Biochemical Protease Assay. How it is done: For the determination of their in vitro activity on HIV protease the test substances are dissolved in DMSO and serially diluted. In each case 0.5 μl of substance dilution, 20 μl of 0.2−1 nM HIV-1 protease wild type or mutant protein (e.g. multiresistant isolate “35513”: L10I, I15V, L19I, K20R, E35D, M36I, R41K, I54V, L63P, H69K, A71V, T74P, I84V, L89M, L90M, 193L, AscoProt Biotech, Prague, Czech Republic) in buffer 1 (50 mM sodium acetate pH 4.9, 0.02% BSA, 0.1 mM EDTA, 0.5 mM DTT) and 20 μl of 8 μM substrate (M1865 from Bachem, Bubendorf, Switzerland; Matayoshi et al., Science 1990, 247, 954-8) in buffer 1 are added successively to a 384 well microtiter plate (Greiner, Frickenhausen, Germany), incubated for 60-180 minutes at 32° C. and the fluorescence is measured (e.g. Tecan Safire, 340 nm extinction, 520 nm emission). IC50 values are determined by graphical plotting of the substance concentration against the percentage inhibition.

One may read the IC50 as the concentration that inhibits the measured activity by half. The low end stands for greater potency, the high end for weaker potency. In the case of `Cc1cc(-c2cccc(O)c2)c(Cl)cc1C1=C(N)C2(CCCN(CC(=O)NCc3ccccc3)C2)OC1=O` (stereo not drawn) [Example 27], the concentration for half-maximal inhibition (IC50) was 14 nM. With `Cc1cc(-c2cccc(NS(=O)(=O)CCN3CCOCC3)c2)c(Cl)cc1C1=C(N)C2(CCCCC2)OC1=O` [Example 20] the figure was 510 nM; with `Cc1cc(-c2cccc(S(C)(=O)=O)c2)c(Cl)cc1C1=C(N)[C@@]2(CCCN(CC(=O)NCc3cccs3)C2)OC1=O` (single isomer, unassigned) [Example 84], 2.5 nM; with `Cc1cc(-c2cccc(S(C)(=O)=O)c2)c(Cl)cc1C1=C(N)[C@@]2(CCCN(CC(=O)NCc3ccccc3)C2)OC1=O` (single isomer, unassigned) [Example 82], 11 nM. In turn, `Cc1cc(-c2cccc(S(C)(=O)=O)c2)c(Cl)cc1C1=C(N)C2(CCCN(CC(=O)NCc3cccc(F)c3F)C2)OC1=O` (stereo not drawn) [Example 51] came in with an IC50 of 2.6 nM. Turning to `CCC(C)CNC(=O)CN1CCCC2(C1)OC(=O)C(c1cc(Cl)c(-c3cccc(S(C)(=O)=O)c3)cc1C)=C2N` (stereo not drawn) [Example 79], it took 85 nM to reach half-maximal inhibition (IC50).
